From patent US5036083A, “Heterocyclic agents” (ICI Pharma, priority 1988, dated 1991) come the findings set out here.

As usually defined, the IC50 is the concentration that gives 50% inhibition. A higher IC50 goes with weaker potency in that assay. One may read the ED50 as the midpoint of the dose-response relation. A higher ED50 goes with weaker potency.

SMILES strings stand for the structures.

One data set relates to dogs. Kind of data set: Induction of methaemoglobin formation in dogs dosed orally. In kind it is in vivo, dog. The note with it: oral, 5 mg/kg. From the text:
In copending European Application No. 88300281.8 (published 28th Sept., 1988 as EP 0284174 Al) it is disclosed that certain indazolone derivatives are effective as inhibitors of the enzyme 5-LO and thus of leukotriene biosyntheses.

The target of data set [1] is T1, 5-LO (Cavia porcellus, UniProt A0A286X958).
T1 construct: cell free system using 5-LO isolated from guinea pig neutrophils; endogenous in cells; host or cells: guinea pig neutrophils
T1 sequence (A0A286X958 1-674): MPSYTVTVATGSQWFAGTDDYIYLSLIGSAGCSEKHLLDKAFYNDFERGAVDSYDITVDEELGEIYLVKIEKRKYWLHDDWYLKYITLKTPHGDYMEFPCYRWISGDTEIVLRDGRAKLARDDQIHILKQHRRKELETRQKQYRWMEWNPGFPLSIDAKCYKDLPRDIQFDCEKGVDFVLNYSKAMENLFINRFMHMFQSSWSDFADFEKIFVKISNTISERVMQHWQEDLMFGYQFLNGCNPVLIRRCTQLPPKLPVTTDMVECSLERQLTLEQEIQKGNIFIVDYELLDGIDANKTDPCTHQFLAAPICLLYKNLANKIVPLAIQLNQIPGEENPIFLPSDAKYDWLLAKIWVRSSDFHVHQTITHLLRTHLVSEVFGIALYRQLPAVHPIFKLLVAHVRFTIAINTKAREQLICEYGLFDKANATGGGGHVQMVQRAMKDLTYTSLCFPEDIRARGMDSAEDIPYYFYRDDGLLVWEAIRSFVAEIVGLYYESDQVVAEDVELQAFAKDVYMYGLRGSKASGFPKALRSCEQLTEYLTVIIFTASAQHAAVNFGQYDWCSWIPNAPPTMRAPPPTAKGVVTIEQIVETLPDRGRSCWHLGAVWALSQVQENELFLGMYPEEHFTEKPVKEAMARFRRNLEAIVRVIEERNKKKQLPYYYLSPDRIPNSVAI
Kind of data set: Test (a): in vitro spectrophotometric cell-free enzyme assay, 5-LO isolated from guinea pig neutrophils. Format: biochemical. The note with it: 5-LO from guinea pig neutrophils. From the text:
(a) An in vitro spectrophotometric enzyme assay system, which assesses the inhibitory properties of a test compound in a cell free system using 5-LO isolated from guinea pig neutrophils and as described by D. Aharony and R. L. Stein (J. Biol. Chem., 1986, 261(25), 11512-11519). This test provides a measure of the intrinsic inhibitory properties against soluble 5-LO in an extracellular environment.

In data set [2] the target is T2, 5-LO (Rattus norvegicus, UniProt P12527).
T2 sequence (P12527 1-673): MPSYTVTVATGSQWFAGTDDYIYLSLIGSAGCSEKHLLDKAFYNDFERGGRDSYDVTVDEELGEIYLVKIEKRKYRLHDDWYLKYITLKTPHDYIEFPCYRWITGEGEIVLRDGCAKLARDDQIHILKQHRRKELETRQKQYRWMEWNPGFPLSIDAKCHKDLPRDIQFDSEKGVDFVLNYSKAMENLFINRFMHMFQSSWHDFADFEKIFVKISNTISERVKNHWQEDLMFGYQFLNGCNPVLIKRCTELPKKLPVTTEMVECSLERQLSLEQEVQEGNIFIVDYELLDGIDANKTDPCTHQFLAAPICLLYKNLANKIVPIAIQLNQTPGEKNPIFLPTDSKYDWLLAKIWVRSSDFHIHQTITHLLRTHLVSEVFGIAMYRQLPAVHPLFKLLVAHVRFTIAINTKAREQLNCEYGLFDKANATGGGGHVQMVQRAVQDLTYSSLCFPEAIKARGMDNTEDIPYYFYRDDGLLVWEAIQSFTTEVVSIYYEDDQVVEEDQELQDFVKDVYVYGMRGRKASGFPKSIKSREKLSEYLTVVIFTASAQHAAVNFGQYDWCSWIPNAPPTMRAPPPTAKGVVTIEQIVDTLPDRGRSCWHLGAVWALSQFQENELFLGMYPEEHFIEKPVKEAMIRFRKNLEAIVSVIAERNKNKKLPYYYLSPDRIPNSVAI
Kind of data set: Test (c): ex vivo assay, oral dosing, blood challenged with A23187, LTB4 radioimmunoassay. Format: in vivo. The arrangement: blood collection, heparinisation, challenge with A23187 and radioimmunoassay of LTB4 and PGE2; from tissue; host or cells: blood of dosed animals, heparinised ex vivo. The note with it: A23187 challenge. Here is the method: (c) An ex vivo assay system, which is a variation of test b) above, involving administration of a test compound (usually orally as the suspension produced when a solution of the test compound in dimethylsulphoxide is added to carboxymethylcellulose), blood collection, heparinisation, challenge with A23187 and radioimmunoassay of LTB4 and PGE2. This test provides an indication of the bioavailability of a test compound as an inhibitor of 5-LO or cyclooxygenase.

For another data set, the target named is T3, cyclooxygenase (Rattus norvegicus, UniProt Q63921).
T3 construct: incubating a test compound with heparinised rat blood; from tissue; host or cells: heparinised rat blood
T3 sequence (Q63921 27-602): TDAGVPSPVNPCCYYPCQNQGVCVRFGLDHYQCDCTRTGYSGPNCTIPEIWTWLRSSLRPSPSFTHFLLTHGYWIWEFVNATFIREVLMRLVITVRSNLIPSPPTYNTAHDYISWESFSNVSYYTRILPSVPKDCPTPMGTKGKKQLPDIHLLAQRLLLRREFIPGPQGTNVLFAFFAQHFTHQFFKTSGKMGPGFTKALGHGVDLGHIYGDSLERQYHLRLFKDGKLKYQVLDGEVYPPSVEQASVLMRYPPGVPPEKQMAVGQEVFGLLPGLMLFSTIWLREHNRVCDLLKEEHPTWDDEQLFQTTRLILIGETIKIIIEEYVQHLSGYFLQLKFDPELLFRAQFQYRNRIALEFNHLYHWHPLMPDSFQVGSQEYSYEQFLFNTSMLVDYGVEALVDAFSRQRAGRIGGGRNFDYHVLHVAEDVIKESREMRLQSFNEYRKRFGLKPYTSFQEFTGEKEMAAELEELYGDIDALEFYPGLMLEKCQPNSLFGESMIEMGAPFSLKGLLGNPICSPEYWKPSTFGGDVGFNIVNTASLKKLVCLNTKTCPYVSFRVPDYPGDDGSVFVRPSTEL
Kind of data set: Test (b): heparinised rat blood challenged with A23187, PGE2 radioimmunoassay. Format: cell-based. Here is the method: (§1) (b) An in vitro assay system involving incubating a test compound with heparinised rat blood, prior to challenge with the calcium ionophore A23187 and then indirectly measuring the inhibitory effects on 5-LO by assaying the amount of LTB4 using the specific radioimmunoassay described by Carey and Forder (F. Carey and R. A. Forder, Brit. J. Pharmacol. 1985, 84, 34P) which involves the use of a protein-LTB4 conjugate produced using the procedure of Young et alia Prostaglandins, 1983, 26(4), 605-613). The effects of a test compound on the enzyme cyclooxygenase (which is involved in the alternative metabolic pathway for arachidonic acid and gives rise to prostaglandins, thromboxanes and related metabolites) may be measured at the same time using the specific radioimmunoassay for prostaglandin E2 (PGE2) described by Carey and Forder (see above). This test provides an indication of the effects of a test compound against 5-LO and also cyclooxygenase in the presence of blood cells and proteins. It permits the selectivity of the inhibitory effect on 5-LO or cyclooxygenase to be assessed.

The target of data set [3] is T2, 5-LO. Description: Test (b): heparinised rat blood challenged with A23187, LTB4 radioimmunoassay. Format: cell-based. Also noted: incubating a test compound with heparinised rat blood; from tissue; host or cells: heparinised rat blood. Here is the method: as §1

As to `O=c1c2ccccc2[nH]n1Cc1cccnc1` [1,2-dihydro-2-(3-pyridylmethyl) 3H indazol-3-one], the “induction of methaemoglobin formation” value in the data set with dogs is listed as “causes induction of methaemoglobin formation”.
For the compound `CCCCCNC(=O)c1cccc2[nH]n(C)c(=O)c12` [Example 5, 1,2-dihydro-2-methyl-4-(N-n-pentylcarbamoyl)-3H-indazol-3-one], the IC50 against 5-LO [1] is 3.1 µM; against cyclooxygenase, 72 µM; on 5-LO [3], 1.4 µM. The ED50 on 5-LO [2] fell in the range of 30 to 100 mg/kg.
